The target of this assay is T1, TβR (GST-ALK5) (Homo sapiens, UniProt P36897).
T1 sequence (P36897 34-503): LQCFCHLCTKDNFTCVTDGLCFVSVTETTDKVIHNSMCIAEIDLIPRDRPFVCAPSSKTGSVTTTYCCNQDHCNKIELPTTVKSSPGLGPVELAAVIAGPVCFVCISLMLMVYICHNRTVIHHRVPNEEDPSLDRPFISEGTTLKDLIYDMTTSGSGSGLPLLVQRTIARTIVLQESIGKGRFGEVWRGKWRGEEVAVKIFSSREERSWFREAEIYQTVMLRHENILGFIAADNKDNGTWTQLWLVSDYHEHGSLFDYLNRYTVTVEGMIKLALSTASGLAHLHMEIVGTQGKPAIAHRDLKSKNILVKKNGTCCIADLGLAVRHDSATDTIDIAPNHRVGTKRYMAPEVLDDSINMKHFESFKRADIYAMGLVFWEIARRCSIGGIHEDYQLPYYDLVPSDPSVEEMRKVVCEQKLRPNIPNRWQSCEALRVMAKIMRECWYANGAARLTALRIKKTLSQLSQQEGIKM
Put plainly: In-vitro (enzyme) flashplate kinase assay, TβR activity. Format: biochemical. The conditions noted are these: GST-ALK5, GST-SMAD2 substrate, 3 mM ATP. Here is the method:
In-Vitro (Enzyme) Assay for Determination of the Efficacy of Inhibitors of the Inhibition of TGF-Beta-Mediated Effects
The kinase assay was carried out as 384-well flashplate assay. […] The reaction was stopped using 25 μl of 200 mM EDTA solution, filtered with suction at room temperature after 30 min, and the wells were washed with 3 times 100 μl of 0.9% NaCl solution. Radioactivity was measured in the TopCount. The IC50 values were calculated using RS1. Above and below, all temperatures were indicated in ° C.

Data on 53 compounds can be found in patent US8987301B2, “Heteroarylaminoquinolines as TGF-beta receptor kinase inhibitors” (Merck Patent GmbH, priority 2009, dated 2015).

Usually pIC50 stands for the negative decadic logarithm of the IC50, by convention in mol/L. Low readings indicate a large IC50, high ones a small IC50.

Structures are written as SMILES. pIC50: −log10 of the molar value. Some results are limits rather than exact numbers.

`FC(F)(F)c1ccc(Cl)cc1-c1cc(Nc2ccncc2)c2ccccc2n1` [compound 058]: the pIC50 is below 5.00.
To `Clc1cccc(-c2cc(Nc3ccncc3)c3ccccc3n2)c1` [compound 059] belongs above 6.30; to `Fc1ccc(Cl)cc1-c1cc(NCc2ccncc2)c2ccccc2n1` [compound 060], below 5.00; to `CN1CCN(C(=O)Nc2cnccc2N(C(=O)N2CCN(C)CC2)c2cc(-c3cc(Cl)ccc3F)nc3ccccc23)CC1` [compound 061], below 5.00.
For `CN1CCN(C(=O)Nc2cnccc2Nc2cc(-c3cc(Cl)ccc3F)nc3ccccc23)CC1` [compound 062], the pIC50 is 6.00 to 6.30.
The compound `Fc1ccc(Cl)cc1-c1cc(Oc2cccnc2)c2ccccc2n1` [compound 063] gave a pIC50 below 5.00.
To `CN(C)CCC(=O)Nc1cnccc1Nc1cc(-c2cc(Cl)ccc2F)nc2ccccc12` [compound 064] belongs above 6.30.
To `Fc1ccc(Cl)cc1-c1cc(NCc2cccnc2)c2ccccc2n1` [compound 065] belongs below 5.00.
For `Cc1cncc(-c2cc(Nc3ccncc3)c3ccccc3n2)c1` [compound 066] the value was below 5.00; for `CN(C)CCCC(=O)Nc1cnccc1Nc1cc(-c2cc(Cl)ccc2F)nc2ccccc12` [compound 067], 6.00 to 6.30; for `Fc1ccc(Cl)cc1-c1cc(Nc2ncnc3ccccc23)c2ccccc2n1` [compound 068], above 6.30.
Compound `Fc1ccc(Cl)cc1-c1cc(Nc2ccnc3cc(C(F)(F)F)ccc23)c2ccccc2n1` [compound 069] showed a negative logarithm of the IC50 (pIC50) above 6.30.
To `Fc1ccc(Cl)c(-c2cc(Nc3ccncc3)c3ccccc3n2)c1` [compound 070] belongs 5.00 to 6.00.
For `O=C(O)CCNc1cnccc1Nc1cc(-c2cc(Cl)ccc2F)nc2ccccc12` [compound 071] the value was below 5.00; for `Nc1cnccc1N(CCC(=O)O)c1cc(-c2cc(Cl)ccc2F)nc2ccccc12` [compound 072], below 5.00; for `c1ccc(-c2cc(Nc3ccncc3)c3ccccc3n2)cc1` [compound 073], above 6.30.
`Nc1cnccc1Nc1cc(-c2ccccc2F)nc2ccccc12` [compound 074, N*4*-[2-(2-fluoro-phenyl)-quinolin-4-yl]-pyridine-3,4-diamine] gave a pIC50 of 5.00 to 6.00.
To `COc1ccc2c(Nc3cc(-c4cc(Cl)ccc4F)nc4ccccc34)ccnc2c1` [compound 075] belongs above 6.30; to `CCN(CC)CCNS(=O)(=O)Nc1cnccc1Nc1cc(-c2cc(Cl)ccc2F)nc2ccccc12` [compound 076], 5.00 to 6.00.
For `Fc1ccc(Cl)cc1-c1cc(-n2cnc3cnccc32)c2ccccc2n1` [compound 077] the value was above 6.30.
For `Nc1ncnc(Nc2cc(-c3cc(Cl)ccc3F)nc3ccccc23)n1` [compound 078] the value was above 6.30; for `CN(C)c1cccc(-c2cc(Nc3ccncc3)c3ccccc3n2)c1` [compound 079], 5.00 to 6.00.
With `CN(C)c1cccc(-c2cc(Nc3cc(N)ncn3)c3ccccc3n2)c1` [compound 080], the pIC50 is below 5.00.
To `CN(C)c1cccc(-c2cc(Nc3ccncn3)c3ccccc3n2)c1` [compound 081] belongs below 5.00; to `O=c1[nH]c2cnccc2n(-c2cc(-c3cc(Cl)ccc3F)nc3ccccc23)c1=O` [compound 082], 5.00 to 6.00; to `FC(F)(F)c1ccccc1-c1cc(Nc2ccncc2)c2ccccc2n1` [compound 083], below 5.00.
The compound `Fc1ccc(Br)cc1-c1cc(Nc2ccncc2)c2ccccc2n1` [compound 084] showed a pIC50 above 6.30.
To `CC(=O)OCC(=O)Nc1cnccc1Nc1cc(-c2cc(Cl)ccc2F)nc2ccccc12` [compound 085] belongs above 6.30.
Turning to `COCC(=O)Nc1cnccc1Nc1cc(-c2cc(Cl)ccc2F)nc2ccccc12` [compound 086], the pIC50 is above 6.30.
For `Fc1ccc(Cl)cc1-c1cc(Nc2cnncc2Nc2cc(-c3cc(Cl)ccc3F)nc3ccccc23)c2ccccc2n1` [compound 087] the value was below 5.00; for `CC(=O)OC(C)(C)C(=O)Nc1cnccc1Nc1cc(-c2cc(Cl)ccc2F)nc2ccccc12` [compound 088], 5.00 to 6.00.
To `COCc1nc2cnccc2n1-c1cc(-c2cc(Cl)ccc2F)nc2ccccc12` [compound 089, 2-(5-Chloro-2-fluoro-phenyl)-4-(2-methoxymethyl-imidazo[4,5-c]pyridin-1-yl)-quinoline] belongs above 6.30; to `COc1cnccc1Nc1cc(-c2cc(Cl)ccc2F)nc2ccccc12` [compound 090, [2-(5-Chloro-2-fluoro-phenyl)-quinolin-4-yl]-(3-methoxy-pyridin-4-yl)-amine], above 6.30; to `CN(C)CCCc1nc2cnccc2n1-c1cc(-c2cc(Cl)ccc2F)nc2ccccc12` [compound 091], 5.00 to 6.00.
Compound `Nc1cnncc1Nc1cc(-c2cc(Cl)ccc2F)nc2ccccc12` [compound 092] gave a pIC50 of 5.00 to 6.00.
For `CC(C)(C)Sc1cnccc1Nc1cc(-c2cc(Cl)ccc2F)nc2ccccc12` [compound 094], the negative-log IC50 (pIC50) is 6.00 to 6.30.
With `Fc1ccc(Cl)cc1-c1cc(Nc2ccncc2)c2cc3c(cc2n1)OCO3` [compound 095], the pIC50 is below 5.00.
As for `CC(C)(C)S(=O)(=O)c1cnccc1Nc1cc(-c2cc(Cl)ccc2F)nc2ccccc12` [compound 096], the pIC50 was below 5.00.
To `CN1CCN(c2cc(Nc3cc(-c4cc(Cl)ccc4F)nc4ccccc34)cc(Cl)n2)CC1` [compound 097] belongs below 5.00.
The compound `Oc1ccc2c(Nc3cc(-c4cc(Cl)ccc4F)nc4ccccc34)ccnc2c1` [compound 098] gave a negative logarithm of the IC50 (pIC50) of 6.00 to 6.30.
On to `Oc1ccccc1-c1cc(Nc2ccncc2)c2ccccc2n1` [compound 099], for which the pIC50 is below 5.00.
`CN1CCN(c2cc(Nc3cc(-c4cc(Cl)ccc4F)nc4ccccc34)ccn2)CC1` [compound 100] showed a pIC50 of 5.00 to 6.00.
To `CCOc1cc(Nc2cc(-c3cc(Cl)ccc3F)nc3ccccc23)ccn1` [compound 101] belongs below 5.00; to `CN(C)CCCNc1cc(Nc2cc(-c3cc(Cl)ccc3F)nc3ccccc23)cc(Cl)n1` [compound 102], 5.00 to 6.00.
For `CN1CCN(c2cc(Nc3cc(-c4cc(Cl)ccc4F)nc4ccccc34)ncn2)CC1` [compound 103] the value was below 5.00; for `COc1cc(Nc2cc(-c3cc(Cl)ccc3F)nc3ccccc23)ncn1` [compound 104], below 5.00.
Take `Nc1cc(Nc2cc(-c3cc(Cl)ccc3F)nc3ccccc23)ccn1` [compound 105]: the negative-log IC50 (pIC50) was above 6.30.
To `Fc1ccc(Cl)cc1-c1cc(Nc2cc(N3CCOCC3)ncn2)c2ccccc2n1` [compound 106] belongs below 5.00.
For `CC(=O)Nc1cc(Nc2cc(-c3cc(Cl)ccc3F)nc3ccccc23)ccn1` [compound 107] the value was above 6.30; for `Clc1ccc(-c2cc(Nc3ccncc3)c3ccccc3n2)cc1Cl` [compound 108], below 5.00; for `O=C(CO)Nc1cnccc1Nc1cc(-c2cc(Cl)ccc2F)nc2ccccc12` [compound 109], 6.00 to 6.30.
Compound `CC(=O)N(c1cc(N)ncn1)c1cc(-c2cc(Cl)ccc2F)nc2ccccc12` [compound 110] had a negative logarithm of the IC50 (pIC50) of 5.00 to 6.00.
`CC(C)(C)C(=O)Nc1cc(Nc2cc(-c3cc(Cl)ccc3F)nc3ccccc23)ccn1` [compound 111] had a pIC50 of 5.00 to 6.00.
